Here are results for 7 molecules from article PMC3818834 (2013).

Assay [1] deals with CA-70 (DNA, aptamer) GGTCAGCACGCTCCGGACTTGGGTGGGTGGGTTGGGGTACGGTGCGTAATGTGTCGCTGAGCCTGCCAAC
As to the kind of experiment: fluorescence titration. The following applies: 138 mM NaCl, 2.7 mM KCl, 2.5 mM MgCl2, 10 mM PBS pH 7.4, 0.05% TWEEN 20, 25 °C.

For assay [2], the system named is CA-17 (DNA, aptamer) GGGTGGGTGGGTTGGGG
Description: fluorescence titration. Conditions: 138 mM NaCl, 2.7 mM KCl, 2.5 mM MgCl2, 10 mM PBS pH 7.4, 0.05% TWEEN 20, 25 °C, compound 1 µM.

The subject of assay [3] is CA-19 (DNA, aptamer) GGGTGGGTGGGTTGGGGTA
As to the kind of experiment: fluorescence polarization. The following applies: 138 mM NaCl, 2.7 mM KCl, 2.5 mM MgCl2; 10 mM PBS pH 7.4, 0.05% TWEEN 20, 25 °C; compound 1 µM; nucleic acid up to 10 µM. In general terms: In fluorescence polarisation assays a small probe gives low polarisation when free and higher when bound to something large.

Assay [4] relates to CA-20 (DNA, aptamer) TGGGTGGGTGGGTTGGGGTA
Description: fluorescence titration. Conditions: 138 mM NaCl, 2.7 mM KCl, 2.5 mM MgCl2; 10 mM PBS pH 7.4, 0.05% TWEEN 20, 25 °C; compound 1 µM; nucleic acid up to 10 µM.

Assay [5] deals with CA-23B (DNA, aptamer) TTTTGGGTGGGTGGGTTGGGGTA
Description: fluorescence titration. The following applies: 138 mM NaCl, 2.7 mM KCl, 2.5 mM MgCl2; 10 mM PBS pH 7.4, 0.05% TWEEN 20, 25 °C; compound 1 µM; nucleic acid up to 10 µM.

For assay [6], the system named is CA-16 (DNA, aptamer) GGGTGGGTGGGTTGGG
As to the kind of experiment: CD melting at 265 nm. The following applies: 138 mM NaCl, 2.7 mM KCl, 2.5 mM MgCl2; 10 mM PBS pH 7.4; compound 10 µM, nucleic acid 10 µM; Tm without compound 73 °C.

In assay [7] the test system is CA-23A (DNA, aptamer) ACTTGGGTGGGTGGGTTGGGGTA
As to the kind of experiment: fluorescence titration. The following applies: 138 mM NaCl, 2.7 mM KCl, 2.5 mM MgCl2; 10 mM PBS pH 7.4, 0.05% TWEEN 20, 25 °C; compound 1 µM; 1:1 assumed.

For assay [8], the system named is CA-40 (DNA, aptamer) ACGCTCCGGACTTGGGTGGGTGGGTTGGGGTACGGTGCGT
Description: fluorescence titration. Conditions: 138 mM NaCl, 2.7 mM KCl, 2.5 mM MgCl2; 10 mM PBS pH 7.4, 0.05% TWEEN 20, 25 °C; compound 1 µM; 1:1 assumed.

In assay [9] the test system is CA-19 (DNA, aptamer) GGGTGGGTGGGTTGGGGTA
As to the kind of experiment: fluorescence titration. The following applies: 138 mM NaCl, 2.7 mM KCl, 2.5 mM MgCl2; 10 mM PBS pH 7.4, 0.05% TWEEN 20, 25 °C; compound 1 µM; nucleic acid up to 10 µM.

Assay [10] concerns CA-18A (DNA, aptamer) TGGGTGGGTGGGTTGGGG
Description: fluorescence titration. The following applies: 138 mM NaCl, 2.7 mM KCl, 2.5 mM MgCl2, 10 mM PBS pH 7.4, 0.05% TWEEN 20, 25 °C, compound 1 µM.

For assay [11], the system named is CA-16 (DNA, aptamer) GGGTGGGTGGGTTGGG
Description: fluorescence titration. The following applies: 138 mM NaCl, 2.7 mM KCl, 2.5 mM MgCl2, 10 mM PBS pH 7.4, 0.05% TWEEN 20, 25 °C, compound 1 µM.

For assay [12] the test system is unchanged. Description: fluorescence polarization. Conditions: 138 mM NaCl, 2.7 mM KCl, 2.5 mM MgCl2; 10 mM PBS pH 7.4, 0.05% TWEEN 20, 25 °C; compound 1 µM.
For assay [13], the system named is CA-18B (DNA, aptamer) GGGTGGGTGGGTTGGGGT
As to the kind of experiment: fluorescence titration. The following applies: 138 mM NaCl, 2.7 mM KCl, 2.5 mM MgCl2; 10 mM PBS pH 7.4, 0.05% TWEEN 20, 25 °C; compound 1 µM; nucleic acid up to 10 µM.

Broadly, the Kd is the constant that tells how readily two partners part at equilibrium. Consider `O=C1OC2(c3ccc(O)cc3Oc3cc(O)ccc32)c2ccccc21`, for which the Kd in assay [1] (nucleic acid up to 10 µM) was > 10 µM.
As to `O=C(O)Cc1ccc2[nH]c3ccccc3c(=O)c2c1`, in assay [1] (nucleic acid up to 10 µM), the Kd is listed as > 10 µM.
As to `O=c1c2ccccc2[nH]c2ccccc12`, in [1] (nucleic acid up to 10 µM), the Kd is > 10 µM.
Take `CC[C@@]1(O)C(=O)OCc2c1cc1n(c2=O)Cc2c-1nc1ccccc1c2CN1CCC(NC(=O)COCC(=O)NCCOCCOCCOCCOCCOCCOCCOCCOCCOCCOCCOCCN)CC1`: the Kd in assay [2] (1:1 assumed) was 8.1 ± 0.9 µM; in assay [4] it was > 10 µM; in assay [5] it was > 10 µM; in assay [7], 2.1 ± 0.9 µM; in assay [8] it was 3.0 ± 0.4 µM; in [1] (compound 1 µM, 1:1 assumed), 1.8 ± 0.3 µM. Further, the Kd in assay [9] is listed as > 10 µM; in assay [10] (1:1 assumed), 6.0 ± 0.8 µM; in assay [11], 1.8 ± 0.3 µM; in assay [13] it was > 10 µM. Besides, the binding result is reported as “no” in assay [3], “yes” in assay [6] and “yes” in assay [12].
Take `Cc1cc2nc3c(=O)[nH]c(=O)nc-3n(C[C@H](O)[C@H](O)[C@H](O)COP(=O)(O)O)c2cc1C`: in assay [1], the Kd stood at 8.5 µM. In other words, the single-digit micromolar range.
`CC[C@@]1(O)C(=O)OCc2c1cc1n(c2=O)Cc2cc3ccccc3nc2-1`: the Kd in assay [2] (nucleic acid up to 10 µM) was > 10 µM; in [4], > 10 µM; in assay [8] it was 5.6 ± 0.5 µM; in assay [1] (compound 1 µM, 1:1 assumed) it was 4.6 ± 0.3 µM; in assay [9], > 10 µM; in [10] (nucleic acid up to 10 µM), > 10 µM. Also, the results for the Kd in assay [11] (1:1 assumed) and in assay [13] were 4.2 ± 0.4 µM and > 10 µM, respectively.
For `CC[C@@]1(O)C(=O)OCc2c1cc1n(c2=O)Cc2c-1nc1ccccc1c2CN1CCC(N)CC1`, the Kd in [2] (1:1 assumed) is listed as 8.9 ± 1.0 µM; in assay [4] it was > 10 µM; in [8], 3.0 ± 0.2 µM; in assay [1] (compound 1 µM, 1:1 assumed), 3.6 ± 0.2 µM; in assay [9], > 10 µM; in assay [10] (1:1 assumed), 3.4 ± 0.3 µM. In addition, the results for the Kd in [11] (1:1 assumed) and in assay [13] were 2.7 ± 0.3 µM and > 10 µM, respectively.
